Holding throughout (test): kinase selectivity panel
What all share (assay type): biochemical

One experiment concerns the target T1, cSRC (Homo sapiens, UniProt P12931).
T1 construct: purchased Eurofins Pharma Discovery Services (KinaseProfiler; Cerep BioPrint panel)
As to conditions: read-out: percentage of control activity (POC), cSRC. The procedure:
(§1) Kinase selectivity was evaluated at Eurofins Pharma Discovery Services using a selection of 125 representative kinases tested at a concentration of 10 μM in duplicate (S3 Table). IC50 values for selected activities were further characterized at 9 duplicate concentrations. DNA-PK activity was determined at the SelectScreen® Biochemical kinase Profiling Service of Thermo Fisher Scientific.

In the next experiment the target is T2, PAK2 (Homo sapiens, UniProt Q13177).
T2 construct: purchased Eurofins Pharma Discovery Services (KinaseProfiler; Cerep BioPrint panel)
T2 sequence (Q13177 whole entry): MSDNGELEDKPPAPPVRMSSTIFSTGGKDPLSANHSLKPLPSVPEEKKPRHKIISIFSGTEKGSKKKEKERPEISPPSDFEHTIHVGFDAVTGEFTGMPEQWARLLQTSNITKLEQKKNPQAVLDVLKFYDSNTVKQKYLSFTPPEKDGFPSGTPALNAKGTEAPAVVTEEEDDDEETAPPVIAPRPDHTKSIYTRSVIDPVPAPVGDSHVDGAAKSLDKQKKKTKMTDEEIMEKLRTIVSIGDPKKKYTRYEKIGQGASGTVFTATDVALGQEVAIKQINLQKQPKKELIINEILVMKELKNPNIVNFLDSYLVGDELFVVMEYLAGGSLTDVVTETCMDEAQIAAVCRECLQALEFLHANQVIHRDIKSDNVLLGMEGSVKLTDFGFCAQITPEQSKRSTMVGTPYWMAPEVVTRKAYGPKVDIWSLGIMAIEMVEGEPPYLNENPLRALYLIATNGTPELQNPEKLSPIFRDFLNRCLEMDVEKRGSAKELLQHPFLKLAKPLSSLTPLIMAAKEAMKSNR
As to conditions: read-out: percentage of control activity (POC), PAK2. The procedure:
as §1

Another experiment addresses T3, SGK (Homo sapiens, UniProt O00141).
T3 construct: purchased Eurofins Pharma Discovery Services (KinaseProfiler; Cerep BioPrint panel)
T3 sequence (O00141 1-431): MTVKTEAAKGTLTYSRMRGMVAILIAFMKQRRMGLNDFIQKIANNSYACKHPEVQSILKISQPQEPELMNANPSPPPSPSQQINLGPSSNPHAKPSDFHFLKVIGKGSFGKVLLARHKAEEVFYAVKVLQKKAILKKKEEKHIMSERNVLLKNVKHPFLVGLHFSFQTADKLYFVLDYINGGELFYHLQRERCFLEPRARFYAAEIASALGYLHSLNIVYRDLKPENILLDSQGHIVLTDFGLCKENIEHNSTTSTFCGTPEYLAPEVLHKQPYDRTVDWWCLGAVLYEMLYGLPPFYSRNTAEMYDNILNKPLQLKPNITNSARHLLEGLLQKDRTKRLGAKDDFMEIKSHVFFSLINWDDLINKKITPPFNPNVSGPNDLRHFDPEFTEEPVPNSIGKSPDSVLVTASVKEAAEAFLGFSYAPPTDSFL
Conditions: read-out: percentage of control activity (POC), SGK. The procedure: as §1

The next experiment deals with T4, MuSK (Homo sapiens, UniProt O15146).
T4 construct: purchased Eurofins Pharma Discovery Services (KinaseProfiler; Cerep BioPrint panel)
T4 sequence (O15146 24-869): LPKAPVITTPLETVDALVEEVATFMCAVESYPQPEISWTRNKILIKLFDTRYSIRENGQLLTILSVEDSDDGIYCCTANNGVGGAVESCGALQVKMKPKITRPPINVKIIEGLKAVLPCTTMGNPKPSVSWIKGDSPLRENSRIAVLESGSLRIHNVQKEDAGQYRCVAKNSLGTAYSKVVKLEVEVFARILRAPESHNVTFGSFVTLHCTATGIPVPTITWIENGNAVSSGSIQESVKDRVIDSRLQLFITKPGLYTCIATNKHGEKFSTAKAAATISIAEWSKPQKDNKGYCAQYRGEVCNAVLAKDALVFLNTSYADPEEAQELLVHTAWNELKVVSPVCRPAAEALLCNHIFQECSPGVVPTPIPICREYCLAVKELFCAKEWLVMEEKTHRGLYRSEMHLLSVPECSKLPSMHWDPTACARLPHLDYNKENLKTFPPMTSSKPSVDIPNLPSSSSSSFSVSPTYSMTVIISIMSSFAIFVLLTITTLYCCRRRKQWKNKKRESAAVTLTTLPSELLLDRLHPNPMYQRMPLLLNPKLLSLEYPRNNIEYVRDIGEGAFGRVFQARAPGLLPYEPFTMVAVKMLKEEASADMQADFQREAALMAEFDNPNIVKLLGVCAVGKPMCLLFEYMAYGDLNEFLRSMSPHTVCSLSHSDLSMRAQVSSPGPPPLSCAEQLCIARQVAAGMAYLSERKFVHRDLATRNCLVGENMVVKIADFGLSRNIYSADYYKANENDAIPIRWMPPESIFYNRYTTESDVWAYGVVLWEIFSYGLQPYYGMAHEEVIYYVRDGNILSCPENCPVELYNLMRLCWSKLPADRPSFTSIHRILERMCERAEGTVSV
Conditions: read-out: percentage of control activity (POC), MuSK. The procedure:
as §1

Another experiment concerns the target T5, TBK1 (Homo sapiens, UniProt Q9UHD2).
T5 construct: purchased Eurofins Pharma Discovery Services (KinaseProfiler; Cerep BioPrint panel)
T5 sequence (Q9UHD2 1-729): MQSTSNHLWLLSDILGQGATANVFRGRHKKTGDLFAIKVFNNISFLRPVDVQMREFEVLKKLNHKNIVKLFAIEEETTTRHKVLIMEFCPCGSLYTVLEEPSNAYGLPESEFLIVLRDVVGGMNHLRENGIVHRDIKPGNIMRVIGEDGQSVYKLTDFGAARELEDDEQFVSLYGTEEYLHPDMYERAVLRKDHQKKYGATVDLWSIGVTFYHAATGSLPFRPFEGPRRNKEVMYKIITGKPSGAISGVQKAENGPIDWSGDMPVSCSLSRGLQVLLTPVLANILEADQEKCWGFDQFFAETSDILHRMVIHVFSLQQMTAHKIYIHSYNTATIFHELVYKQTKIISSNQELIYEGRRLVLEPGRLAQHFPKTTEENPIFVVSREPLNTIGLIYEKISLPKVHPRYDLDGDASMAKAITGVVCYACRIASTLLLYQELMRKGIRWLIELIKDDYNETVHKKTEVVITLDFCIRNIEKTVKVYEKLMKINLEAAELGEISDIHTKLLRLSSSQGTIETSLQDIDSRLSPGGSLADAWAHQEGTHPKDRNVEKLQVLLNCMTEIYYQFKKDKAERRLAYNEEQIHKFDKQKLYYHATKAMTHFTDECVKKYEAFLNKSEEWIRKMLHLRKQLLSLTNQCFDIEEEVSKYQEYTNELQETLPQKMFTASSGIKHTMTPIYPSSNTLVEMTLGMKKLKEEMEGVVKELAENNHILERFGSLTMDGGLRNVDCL
As to conditions: read-out: percentage of control activity (POC), TBK1. As for the experimental part: as §1

In another experiment the target is T6, BTK (Homo sapiens, UniProt Q06187).
T6 construct: purchased Eurofins Pharma Discovery Services (KinaseProfiler; Cerep BioPrint panel)
T6 sequence (Q06187 whole entry): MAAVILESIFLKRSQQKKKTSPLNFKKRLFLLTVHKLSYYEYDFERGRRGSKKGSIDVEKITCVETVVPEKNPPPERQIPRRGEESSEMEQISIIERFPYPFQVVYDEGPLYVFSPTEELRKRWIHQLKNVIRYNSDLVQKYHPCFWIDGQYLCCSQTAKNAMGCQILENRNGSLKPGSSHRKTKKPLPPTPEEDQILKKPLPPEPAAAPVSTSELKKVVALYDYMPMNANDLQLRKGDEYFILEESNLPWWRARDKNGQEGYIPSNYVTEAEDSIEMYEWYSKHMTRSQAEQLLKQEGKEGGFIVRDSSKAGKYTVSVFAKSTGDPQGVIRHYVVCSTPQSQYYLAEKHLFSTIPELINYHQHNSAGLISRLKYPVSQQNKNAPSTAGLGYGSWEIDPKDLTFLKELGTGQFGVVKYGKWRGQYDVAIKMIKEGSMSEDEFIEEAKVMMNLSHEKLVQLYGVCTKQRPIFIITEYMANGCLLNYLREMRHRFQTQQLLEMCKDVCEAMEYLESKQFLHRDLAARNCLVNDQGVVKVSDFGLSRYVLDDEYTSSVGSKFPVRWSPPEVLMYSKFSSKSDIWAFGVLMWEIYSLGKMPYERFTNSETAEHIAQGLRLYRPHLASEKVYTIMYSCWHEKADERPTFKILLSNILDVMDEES
As to conditions: read-out: percentage of control activity (POC), BTK. As for the experimental part:
as §1

A further experiment concerns the target T7, CK1δ (Homo sapiens, UniProt P48730).
T7 construct: purchased Eurofins Pharma Discovery Services (KinaseProfiler; Cerep BioPrint panel)
Conditions: read-out: percentage of control activity (POC), CK1δ. As for the experimental part:
as §1

A further experiment concerns the target T8, Aurora-A (Homo sapiens, UniProt O14965).
T8 construct: purchased Eurofins Pharma Discovery Services (KinaseProfiler; Cerep BioPrint panel)
T8 sequence (O14965 1-403): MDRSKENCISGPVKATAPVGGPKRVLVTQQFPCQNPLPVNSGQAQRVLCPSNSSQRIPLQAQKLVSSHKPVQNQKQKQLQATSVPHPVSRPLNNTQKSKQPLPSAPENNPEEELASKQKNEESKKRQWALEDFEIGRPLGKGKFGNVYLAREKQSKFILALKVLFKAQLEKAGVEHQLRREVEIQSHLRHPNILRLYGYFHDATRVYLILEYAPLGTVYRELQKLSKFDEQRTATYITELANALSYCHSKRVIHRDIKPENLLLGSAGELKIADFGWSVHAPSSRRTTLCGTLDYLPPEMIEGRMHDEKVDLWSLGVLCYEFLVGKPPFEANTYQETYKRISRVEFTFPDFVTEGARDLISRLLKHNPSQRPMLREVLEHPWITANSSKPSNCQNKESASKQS
As to conditions: read-out: percentage of control activity (POC), Aurora-A. The procedure: as §1

T7 sequence (P48730 whole entry): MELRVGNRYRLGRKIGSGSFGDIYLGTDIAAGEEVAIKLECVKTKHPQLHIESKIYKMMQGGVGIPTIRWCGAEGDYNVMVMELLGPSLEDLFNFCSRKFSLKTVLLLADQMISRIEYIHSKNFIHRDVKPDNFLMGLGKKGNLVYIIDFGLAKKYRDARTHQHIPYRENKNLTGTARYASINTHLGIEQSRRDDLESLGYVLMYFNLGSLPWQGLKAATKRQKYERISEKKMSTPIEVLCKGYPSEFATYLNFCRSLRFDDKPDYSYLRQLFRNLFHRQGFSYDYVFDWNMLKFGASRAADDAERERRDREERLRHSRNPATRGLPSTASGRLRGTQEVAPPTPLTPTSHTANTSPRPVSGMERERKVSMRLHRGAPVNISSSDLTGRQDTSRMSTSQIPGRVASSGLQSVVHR
T1 sequence (P12931 whole entry): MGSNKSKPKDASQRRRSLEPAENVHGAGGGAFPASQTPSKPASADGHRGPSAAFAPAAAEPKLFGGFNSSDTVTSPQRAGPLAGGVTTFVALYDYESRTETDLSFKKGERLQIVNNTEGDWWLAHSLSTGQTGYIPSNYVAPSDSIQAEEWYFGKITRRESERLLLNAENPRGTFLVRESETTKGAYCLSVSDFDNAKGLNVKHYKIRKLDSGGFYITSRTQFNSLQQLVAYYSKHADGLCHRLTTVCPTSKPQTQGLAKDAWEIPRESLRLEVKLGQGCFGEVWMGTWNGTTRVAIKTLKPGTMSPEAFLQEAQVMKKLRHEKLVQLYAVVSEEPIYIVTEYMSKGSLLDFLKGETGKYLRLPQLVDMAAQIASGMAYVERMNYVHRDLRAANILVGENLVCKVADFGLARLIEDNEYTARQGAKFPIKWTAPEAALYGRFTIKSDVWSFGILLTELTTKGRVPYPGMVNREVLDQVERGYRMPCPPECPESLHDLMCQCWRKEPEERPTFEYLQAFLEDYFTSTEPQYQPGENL

As to `CC(C)(C)N1CCC(c2cc(-c3ccc(F)cc3Cl)c3cc[n+]([O-])c(-c4c(Cl)cccc4Cl)c3n2)CC1` [compound 2], the remaining activity at 10 µM at cSRC came out at 107%; on PAK2, 111%; on SGK, 105%; on MuSK, 110%; on TBK1 it was 108%; on BTK, 114%. The values for the remaining activity at 10 µM at CK1δ and at Aurora-A were 110% and 112%, respectively.

Turning to `Cc1ccc(C(=O)NCC2CC2)cc1-c1ccc2c(c1)NC(=O)C21CCCC1` [compound 3], the remaining activity at 10 µM turned out to be 103% at cSRC; 89% on PAK2; 99% at SGK; 106% at MuSK; 92% on TBK1; 98% at BTK. Moreover, the figures for the remaining activity at 10 µM on CK1δ and at Aurora-A were 100% and 96%, respectively.

For the compound `Cn1cc(-c2cccc(-c3nc(C(=O)NC4C5CC6CC4CC(O)(C6)C5)c(N)nc3N)c2)cn1` (stereo not shown) [compound 4], the remaining activity at 10 µM on cSRC turned out to be 69%; on PAK2, 87%; on SGK it was 96%; at MuSK, 101%; at TBK1, 90%; at BTK, 89%. Also, the remaining activity at 10 µM on CK1δ was found to be 50%; at Aurora-A it was 89%.

Consider `CS(=O)(=O)N1CCN(c2ccc(Nc3ncc(C(N)=O)c(NC4CC4)n3)cc2)CC1` [compound 5], for which the remaining activity at 10 µM was 16% on cSRC; 24% at PAK2; 64% on SGK; 60% on MuSK; -1% at TBK1; 17% at BTK. The results for the remaining activity at 10 µM on CK1δ and at Aurora-A were 23% and 2%, respectively.

For `COc1c(NC(=O)c2ccc(C)c(-c3nnc4c(NCC(C)(C)C)nccn34)c2)cc(C(C)(C)C)cc1NS(C)(=O)=O` [compound 7, reference compound], the remaining activity at 10 µM on cSRC was found to be 103%; on PAK2, 96%; at SGK, 114%; on MuSK it was 104%; on TBK1 it was 103%; at BTK, 112%. Moreover, the remaining activity at 10 µM came to 111% at CK1δ and 110% on Aurora-A.
